Consider `CC(C)N(c1ccc(OCC(=O)O)cc1)c1nc(-c2ccc(NC(=O)c3cc(Cl)cc(Cl)c3)cc2)cs1` [Example 56, (4-(N-(4-(4-(3,5-dichlorobenzoylamino)phenyl)-2-thiazolyl)-N-isopropylamino)phenoxy)acetic acid], for which the melting point was in the range of 192 to 194 °C.

`CC(C)N(c1ccc(OCC(=O)O)cc1)c1nc(-c2ccc(NC(=O)c3ccc(N4CCCCC4)nc3)cc2)cs1` [Example 57, (4-(N-isopropyl-N-(4-(4-(2-piperidino-5-pyridinecarbonylamino)phenyl)-2-thiazolyl)amino)phenoxy)acetic acid] showed a melting point of 237 to 240 °C.

For the molecule `CC(C)N(Cc1ccc(C(=O)O)cc1)c1nc(-c2ccc(NC(=O)c3ccc(C4CCCCC4)cc3)cc2)cs1` [Example 61, 4-((N-(4-(4-(4-cyclohexylbenzoylamino)phenyl)-2-thiazolyl)-N-isopropylamino)methyl)benzoic acid], the melting point was 250 °C (dec.).

For the molecule `CC(C)N(Cc1ccc(C(=O)O)cc1)c1nc(-c2ccc(NC(=O)c3ccc(N4CCCCC4)cc3)cc2)cs1` [Example 62, 4-((N-isopropyl-N-(4-(4-(4-piperidinobenzoylamino)phenyl)-2-thiazolyl)amino)methyl)benzoic acid], the melting point is 234 °C (dec.).

Consider `CC(C)N(Cc1ccc(C(=O)O)cc1)c1nc(-c2ccc(NC(=O)c3ccc(N4CCOCC4)cc3)cc2)cs1` [Example 63, 4-((N-isopropyl-N-(4-(4-(4-morpholinobenzoylamino)phenyl)-2-thiazolyl)amino)methyl)benzoic acid], for which the melting point is 250 °C (dec.).

As to `CC(C)N(Cc1ccc(C(=O)O)cc1)c1nc(-c2ccc(NC(=O)c3ccc(-c4ccccc4)cc3)cc2)cs1` [Example 64, 4-((N-(4-(4-(4-biphenylcarbonylamino)phenyl)-2-thiazolyl)-N-isopropylamino)methyl)benzoic acid], the melting point is 250 °C (dec.).

Molecule `CC(C)N(Cc1ccc(C(=O)O)cc1)c1nc(-c2ccc(OCc3ccc(C4CCCCC4)cc3)cc2)cs1` [Example 65, 4-((N-(4-(4-(4-cyclohexylbenzyloxy)phenyl)-2-thiazolyl)-N-isopropylamino)methyl)benzoic acid] showed a melting point of 233 to 234 °C.

For the molecule `O=C(O)c1ccc(Cc2nc(-c3ccc(NC(=O)c4ccc(C5CCCCC5)cc4)cc3)cs2)cc1` [Example 68, 4-(4-(4-(4-cyclohexylbenzoylamino)phenyl)-2-thiazolylmethyl)benzoic acid], the melting point was 230 °C (dec.).

For `CC(C)Oc1ccc(C(=O)Nc2ccc(-c3csc(Cc4ccc(C(=O)O)cc4)n3)cc2)cc1` [Example 69, 4-(4-(4-(4-isopropoxybenzoylamino)phenyl)-2-thiazolylmethyl)benzoic acid], the melting point is 230 °C (dec.).

For the molecule `O=C(O)c1ccc(Cc2nc(-c3ccc(NC(=O)c4ccc(-n5cccc5)cc4)cc3)cs2)cc1` [Example 70, 4-(4-(4-(4-(1-pyrrolyl)benzoylamino)phenyl)-2-thiazolylmethyl)benzoic acid], the melting point was 220 °C (dec.).

As to `O=C(O)c1ccc(C(=O)c2nc(-c3ccc(OCc4ccc(C5CCCCC5)cc4)cc3)cs2)cc1` [Example 71, 4-(4-(4-(4-cyclohexylbenzyloxy)phenyl)-2-thiazolecarbonyl)benzoic acid], the melting point was in the range of 259 to 261 °C.

Turning to `O=C(O)c1ccc(Nc2nc(-c3ccc(OCc4ccc(C5CCCCC5)cc4)cc3)cs2)c(OCCC2CCCCC2)c1` [Example 72, 4-(4-(4-(4-cyclohexylbenzyloxy)phenyl)-2-thiazolylamino)-3-(2-cyclohexylethoxy)benzoic acid], the melting point is 230 °C (dec.).

Turning to `O=C(O)c1ccc(Nc2nc(-c3ccc(OCc4ccc(C5CCCCC5)cc4)cc3)cs2)c(OCc2ccccc2)c1` [Example 73, 3-benzyloxy-4-(4-(4-(4-cyclohexylbenzyloxy)phenyl)-2-thiazolylamino)benzoic acid], the melting point was 230 °C (dec.).

As to `O=C(O)c1ccc(COc2cc(C(=O)O)ccc2Nc2nc(-c3ccc(OCc4ccc(C5CCCCC5)cc4)cc3)cs2)cc1` [Example 74, 3-(4-carboxybenzyloxy)-4-(4-(4-(4-cyclohexylbenzyloxy)phenyl)-2-thiazolylamino)benzoic acid], the melting point is 230 °C (dec.).

Regarding `CC(C)N(Cc1ccc(C(=O)O)cc1)c1nc(-c2ccc(OCc3ccc(Cl)c(Cl)c3)cc2)cs1` [Example 77, 4-((N-(4-(4-(3,4-dichlorobenzyloxy)phenyl)-2-thiazolyl)-N-isopropylamino)methyl)benzoic acid], the melting point was in the range of 180 to 181 °C.

Molecule `CC(C)N(c1ccc(-c2nnn[nH]2)cc1)c1nc(-c2ccc(OCc3ccc(C4CCCCC4)cc3)cc2)cs1` [Example 78, N-(4-(4-(4-cyclohexylbenzyloxy)phenyl)-2-thiazolyl)-N-isopropyl-(4-(1H-tetrazol-5-yl)phenyl)amine] registered a melting point of 215 to 216 °C.

`CC(C)N(Cc1ccc(-c2nnn[nH]2)cc1)c1nc(-c2ccc(OCc3ccc(C4CCCCC4)cc3)cc2)cs1` [Example 79, N-(4-(4-(4-cyclohexylbenzyloxy)phenyl)-2-thiazolyl)-N-isopropyl-(4-(1H-tetrazol-5-yl)benzyl)amine]: the melting point lay within 238 to 239 °C.

Regarding `CC(C)N(Cc1cccc(-c2nnn[nH]2)c1)c1nc(-c2ccc(OCc3ccc(C4CCCCC4)cc3)cc2)cs1` [Example 80, N-(4-(4-(4-cyclohexylbenzyloxy)phenyl)-2-thiazolyl)-N-isopropyl-(3-(1H-tetrazol-5-yl)benzyl)amine], the melting point was 221 to 222 °C.

Regarding `CC(C)N(Cc1cccc(C(=O)O)c1)c1nc(-c2ccc(OCc3ccc(C4CCCCC4)cc3)cc2)cs1` [Example 87, 3-((N-(4-(4-(4-cyclohexylbenzyloxy)phenyl)-2-thiazolyl)-N-isopropylamino)methyl)benzoic acid], the melting point is 196 to 197 °C.

`CC(C)N(Cc1ccccc1C(=O)O)c1nc(-c2ccc(OCc3ccc(C4CCCCC4)cc3)cc2)cs1` [Example 88, 2-((N-(4-(4-(4-cyclohexylbenzyloxy)phenyl)-2-thiazolyl)-N-isopropylamino)methyl)benzoic acid] gave a melting point of 259 to 261 °C.

With `CN(c1ccc(C(=O)O)cc1)c1nc(-c2ccc(OCc3ccc(Cl)c(Cl)c3)cc2)cs1` [Example 89, 4-(N-(4-(4-(3,4-dichlorobenzyloxy)phenyl)-2-thiazolyl)-N-methylamino)benzoic acid], the melting point is 230 °C (dec.).

For the molecule `CC(C)(c1ccc(C(=O)O)cc1)c1nc(-c2ccc(OCc3ccc(Cl)c(Cl)c3)cc2)cs1` [Example 90, 4-(1-(4-(4-(3,4-dichlorobenzyloxy)phenyl)-2-thiazolyl)-1-methylethyl)benzoic acid], the melting point was in the range of 170 to 172 °C.

In turn, `O=C(O)c1ccc(C2(c3nc(-c4ccc(OCc5ccc(C6CCCCC6)cc5)cc4)cs3)CCCC2)cc1` [Example 91, 4-(1-(4-(4-(4-cyclohexylbenzyloxy)phenyl)-2-thiazolyl)cyclopentyl)benzoic acid] came in with a melting point of 248 to 251 °C.

As for `CC(C)(c1ccc(C(=O)O)cc1)c1nc(-c2ccc(OCc3ccc(-c4ccccc4)cc3)cc2)cs1` [Example 92, 4-(1-(4-(4-(4-biphenylylmethoxy)phenyl)-2-thiazolyl)-1-methylethyl)benzoic acid], the melting point is 230 °C (dec.).

Consider `O=C(O)c1ccc(C2(c3nc(-c4ccc(OCc5ccc(Cl)c(Cl)c5)cc4)cs3)CCCCC2)cc1` [Example 93, 4-(1-(4-(4-(3,4-dichlorobenzyloxy)phenyl)-2-thiazolyl)cyclohexyl)benzoic acid], for which the melting point lay in the range of 168 to 171 °C.

Regarding `O=C(O)c1ccc(Nc2nc(-c3ccc(OCc4ccc(Cl)c(Cl)c4)cc3)cs2)cc1` [Example 94, 4-(4-(4-(3,4-dichlorobenzyloxy)phenyl)-2-thiazolylamino)benzoic acid], the melting point is 230 °C (dec.).

Consider `O=C(O)c1ccc(Nc2nc(-c3ccc(OCc4ccc(-c5ccccc5)cc4)cc3)cs2)cc1` [Example 95, 4-(4-(4-(4-biphenylylmethoxy)phenyl)-2-thiazolylamino)benzoic acid], for which the melting point is 230 °C (dec.).

In the case of `CC(C)N(c1ccc(C(=O)O)cc1)c1nc(-c2ccc(OCc3ccc(Cl)c(Cl)c3)cc2)cs1` [Example 96, 4-(N-(4-(4-(3,4-dichlorobenzyloxy)phenyl)-2-thiazolyl)-N-isopropylamino)benzoic acid], the melting point lay in the range of 236 to 238 °C.

Regarding `CN(C)CCN(c1ccc(C(=O)O)cc1)c1nc(-c2ccc(OCc3ccc(Cl)c(Cl)c3)cc2)cs1` [Example 97, 4-(N-(4-(4-(3,4-dichlorobenzyloxy)phenyl)-2-thiazolyl)-N-(2-dimethylaminoethyl)amino)benzoic acid], the melting point is 230 °C (dec.).

For the molecule `O=C(O)c1ccc(N(CCN2CCCCC2)c2nc(-c3ccc(OCc4ccc(Cl)c(Cl)c4)cc3)cs2)cc1` [Example 98, 4-(N-(4-(4-(3,4-dichlorobenzyloxy)phenyl)-2-thiazolyl)-N-(2-piperidinoethyl)amino)benzoic acid], the melting point is 230 °C (dec.).

Regarding `COCCN(c1ccc(C(=O)O)cc1)c1nc(-c2ccc(OCc3ccc(Cl)c(Cl)c3)cc2)cs1` [Example 99, 4-(N-(4-(4-(3,4-dichlorobenzyloxy)phenyl)-2-thiazolyl)-N-(2-methoxyethyl)amino)benzoic acid], the melting point lay within 175 to 178 °C.

The molecule `O=C(O)c1ccc(C2(c3nc(-c4ccc(OCc5ccc(C6CCCCC6)cc5)cc4)cs3)CCCCC2)cc1` [Example 100, 4-(1-(4-(4-(4-cyclohexylbenzyloxy)phenyl)-2-thiazolyl)cyclohexyl)benzoic acid] gave a melting point of 222 to 224 °C.

Consider `O=C(O)c1ccc(C2(c3nc(-c4ccc(OCc5ccc(C6CCCCC6)cc5)cc4)cs3)CCOCC2)cc1` [Example 101, 4-(4-(4-(4-(4-cyclohexylbenzyloxy)phenyl)-2-thiazolyl)tetrahydropyran-4-yl)benzoic acid], for which the melting point was 230 °C (dec.).

With `CC(C)N(Cc1ccc(C(=O)O)cc1)c1nc(-c2ccc(NS(=O)(=O)c3ccc(C(C)(C)C)cc3)cc2)cs1` [Example 104, 4-((N-(4-(4-(4-tert-butylbenzenesulfonylamino)phenyl)-2-thiazolyl)-N-isopropylamino)methyl)benzoic acid], the melting point lay in the range of 178 to 180 °C.

In general, melting point refers to the temperature, or range, at which the solid turns liquid.

The values above are taken from patent US7163952B2, “Azole compound and medicinal use thereof” (Japan Tobacco Inc., priority 2001, dated 2007).
